Test results from the NIST ThermoML archive (doi:10.1016/j.fluid.2014.04.002).

Experiment: xn = mol fraction of the nth substance listed
Conditions: 101 kPa, Liquid; for viscosity: Concentric cylinders viscometry; for mass density: Vibrating tube method

CCOC(=O)C(C)O (stereo not drawn) [DL-ethyl lactate] + C1CCOC1
Conditions	mass density, 288.15 K [kg/m3]	mass density, 293.15 K [kg/m3]	mass density, 298.15 K [kg/m3]	mass density, 303.15 K [kg/m3]	viscosity, 288.15 K [mPa·s]	viscosity, 293.15 K [mPa·s]	viscosity, 298.15 K [mPa·s]	viscosity, 303.15 K [mPa·s]
x1 = 0.1002	913.682	908.275	902.835	897.364	0.6267	0.5901	0.5622	0.5357
x1 = 0.2001	932.177	926.796	921.368	915.916	0.7629	0.7128	0.6721	0.6349
x1 = 0.3001	949.134	943.748	938.334	932.893	0.9181	0.8562	0.8003	0.7493
x1 = 0.4001	964.944	959.567	954.154	948.718	1.095	1.013	0.9386	0.8721
x1 = 0.4999	979.595	974.209	968.8	963.363	1.313	1.2	1.103	1.016
x1 = 0.5999	993.315	987.924	982.515	977.073	1.58	1.426	1.297	1.183
x1 = 0.6999	1006.15	1000.76	995.342	989.9	1.91	1.701	1.527	1.38
x1 = 0.7999	1018.13	1012.74	1007.32	1001.88	2.309	2.028	1.799	1.607
x1 = 0.8997	1029.17	1023.77	1018.34	1012.89	2.754	2.389	2.096	1.854
x1 = 1	1039.28	1033.84	1028.39	1022.92	3.207	2.75	2.39	2.097
